Source: patent US20130004053A1, “System and method for automatic color segmentation and minimum significant response for measurement of fractional localized intensity of cellular compartments” (Vala Sciences, Inc., priority 2002, published 2013)

Key:
[1] = tested on: NFκB p65 cytoplasm-to-nucleus translocation in HUVEC cells; details: previous reports [Ding et al.]; cited from earlier work
[2] = tested on: NFκB p65 cytoplasm-to-nucleus translocation in HUVEC cells; assay: TNFα-induced NFκB cytoplasm-nucleus translocation in HUVEC (FLIN); type: cell-based, human
Description: The cells used in these studies were primary human umbilical vein endothelial cells (HUVEC) obtained from Clonetics Corporation. The cells were maintained in culture under standard conditions and passaged using Clonetics' proprietary EGM medium and reagent system. Since they are not transformed, HUVECs, generally become senescent after nine or ten passages.
Prior to assay, cells were transferred to 96-well plates (Packard black ViewPlate) and incubated overnight to yield cell monolayers that were approximately 25% confluent. Plates used to determine a statistically optimal cell density for the assay were made by seeding wells at 5000, 2500, and 1000 cells per well and incubating overnight. […] Translocation of NFκB from the cytoplasm to the nucleus was assessed by visual examination of sample wells with a confocal microscope system. […]
Fractional Localized Intensity Measurements on TNFα-induced NFκB Cytoplasm-Nucleus Translocation: Immunofluorescent staining of the NFκB p65 regulatory subunit allows for easy characterization of the intercellular NFκB distribution by visual inspection of images acquired during scanning. The majority of fluorescence lies outside the nuclear area in unstimulated cells, while a substantial amount co-locates with the nuclear mask subsequent to maximal stimulation with TNFα (FIG. 11). […]

tumor necrosis factor α [TNFα]
fraction of p65 to translocate on stimulus, of gross amount in unstimulated cell cytoplasm [1]: 20% | translocation of labeled NFκB, average ([2]; 200 U/ml TNFα, 15 m, average over cellular densities): 18.80% | gross p65 translocated upon maximal stimulation ([2]; maximal stimulation): ≈ 20%
